Source: patent US9119846B2, “Method and composition for enhancing cognition in alzheimer's patients” (NEURIM PHARMACEUTICALS (1991) LTD., priority 2003, dated 2015)

Columns and labels:
Format in all cases: in vivo, human
[1] = test system: elderly insomnia patients; test: Subjectively assessed quality of sleep (140 mm visual analog scale), randomized double-blind crossover study; settings: controlled release 2 mg, 4 weeks, higher = better sleep
Method: The effect of a controlled release formulation of melatonin on subjectively assessed sleep quality in 17 elderly insomnia patients (aged 66.9 (SD 5.4) years) were studied in a randomized, double-blind, crossover study. Basal excretion of the main melatonin metabolite 6-sulfatoxymentonin in urine over the nocturnal period (8 p.m.-8 a.m.) was measured and the subjects were treated for 1 week with placebo to establish baseline characteristics followed by a two-period crossover design (4 weeks on either melatonin controlled release 2 mg or placebo) separated by a washout period (1 week). On the last week of the baseline and treatment periods patients were asked to assess the quality of their sleep the previous night by ticking a 140 mm visual analog scale. The distance (in mm) of the patient mark from the left hand side of the scale was measured and a higher number indicated better sleep. The difference from placebo values in the patient evaluation of restful sleep was calculated for smoking and non-smoking patients. There were no significant differences in the amount of nocturnal 6-sulfatoxymentonin excreted by smokers and non-smokers in the study population (3.5+1.5 vs. 6.3+5 μg 6-sulfatoxymentonin, respectively). […] No difference was found in the response to placebo between the smokers and non-smokers.

[2] = test system: mixed age insomnia patients; test: Leeds Sleep Evaluation Questionnaire sleep quality, responder rate; settings: 1 mg per night, 3 weeks
Method: The effects of a controlled release formulation of melatonin on subjectively assessed sleep quality were studied in a mixed age insomnia patients population (aged 20-80 years). The subjects were treated for 1 week with placebo to establish baseline characteristics and then for 3 weeks with 1 mg per night of controlled release melatonin or placebo. On the last three days of the baseline and treatment periods patients were asked to assess the quality of their sleep the previous night using the Leeds Sleep Evaluation Questionnaire (Parrott, A. C. and I. Hindmarch (1980). “The Leeds sleep evaluation questionnaire in psychopharmacological investigations—a review.” Psychopharmacology (Berl) 71(2): 173-9) which comprises two 100 mm visual analog scales relating to sleep quality. The distance of the patient mark from the right hand side in mm was measured and the mean answer of the two questions was averaged across the 3 consecutive nights. A responder was defined as a patient showing improvement of 10 mm or more on the averaged value. […] There was no difference in responder rate to placebo between the smokers (46%, n=13) and non-smokers groups (44% n=53, p=0.89, chi-square test).

[3] = test system: elderly insomnia patients; test: Psychomotor performance (total reaction time, mean reaction time); settings: 2 mg per night, 3 weeks
Method: The effect of a controlled release formulation of melatonin on psychomotor performance (total reaction time, TRT, and Mean reaction time, MRT) in 40 elderly insomnia patients (aged 60.8 (SD 0.8) years) were studied. The subjects were treated for 2 weeks with placebo (baseline) and 3 weeks with 2 mg per night of controlled release melatonin. On the last two days of treatment psychomotor tests were taken by all patients to assess daytime vigilance.

elderly volunteers = test: Memory recall (Rivermead story test), crossover study; settings: for Difference in recalls under melatonin and placebo / Mean number of recalled elements of the story: 2 hours after intake; for Mean number of recalled elements of the story: 2 mg controlled release
Method: The effect of melatonin (2 mg controlled release formulation) and placebo on memory recall (Rivermead story test) were assessed in 16 elderly volunteers (>55 years; aged 59 (SD 3.2) years). In a randomised, double-blind, crossover study the subjects were given a tablet of placebo in the evening to establish baseline and then a tablet of melatonin or placebo in a random order in the evening with one week with no treatment in between treatments. The Rivermead test was given to the patients at 2 and 12.5 hours after the administration of the tablet. […] Memory efficiency is increased with controlled release 2 mg melatonin for both recalls (immediate and delayed) in the subjects who were smoking or ceased smoking within the last 6 months prior to the study than non-smokers compared to baseline or crossover placebo.

COc1ccc2[nH]cc(CCNC(C)=O)c2c1 [melatonin]
Mean change (in mm) in perceived quality of sleep with melatonin over placebo ([1]; Non smokers (n = 4)): −2.8 mm | Mean change (in mm) in perceived quality of sleep with melatonin over placebo ([1]; Smokers (n = 10)): 15 mm | rate of responders (improvement of 10 mm or more) ([2]; non-smokers, n=43): 40% | rate of responders (improvement of 10 mm or more) ([2]; smokers, n=16): 62% | improvement in psychomotor skills, MRT ([3]; non-smokers): 0.00062 s | improvement in psychomotor skills, TRT ([3]; non-smokers): -5.21 ms | improvement in psychomotor skills, MRT ([3]; smokers): -0.03607 s | improvement in psychomotor skills, TRT ([3]; smokers): -38.95 ms | memory tasks in the first hours of administration over the respective placebo values (elderly volunteers; 2 mg controlled release formulation, single administration): improvement of memory tasks | Difference in recalls under melatonin and placebo (elderly volunteers; Non-smokers (n = 12)): −2.41 | Mean number of recalled elements of the story (elderly volunteers; Non-smokers (n = 12)): 9.8 | Difference in recalls under melatonin and placebo (elderly volunteers; Smokers (n = 4)): 3.5 | Mean number of recalled elements of the story (elderly volunteers; Smokers (n = 4)): 14.8
